In patent US20230271969A1, “NITROGEN-CONTAINING FUSED RING DERIVATIVE INHIBITOR, PREPARATION METHOD THEREFOR AND USE THEREOF” (Shanghai Hansoh Biomedical Co., Ltd., priority 2020, published 2023):

Columns and labels:
NK3 receptors [1] = target: T1, NK3 receptors (Homo sapiens, UniProt P29371); assay: Calcium ion fluidity (FLIPR) in cells with stable expression of NK3 receptors; format: cell-based; conditions: calcium signal, antagonist mode, read-out: NK3R IC50 (nM) FLIPR
T1 construct: expressed in transfected cells
T1 sequence (P29371 1-465): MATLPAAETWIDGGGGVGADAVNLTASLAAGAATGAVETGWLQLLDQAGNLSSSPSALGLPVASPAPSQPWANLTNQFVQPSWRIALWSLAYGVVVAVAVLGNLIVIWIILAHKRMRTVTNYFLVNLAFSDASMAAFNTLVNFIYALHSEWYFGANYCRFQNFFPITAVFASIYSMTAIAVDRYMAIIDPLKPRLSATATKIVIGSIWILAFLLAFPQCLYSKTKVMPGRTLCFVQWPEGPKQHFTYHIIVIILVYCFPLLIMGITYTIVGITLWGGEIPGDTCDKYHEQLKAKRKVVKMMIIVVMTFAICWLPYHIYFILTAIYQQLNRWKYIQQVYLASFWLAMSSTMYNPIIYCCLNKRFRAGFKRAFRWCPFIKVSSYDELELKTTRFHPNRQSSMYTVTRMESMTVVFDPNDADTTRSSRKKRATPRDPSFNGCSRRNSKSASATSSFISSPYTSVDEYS

NK3 receptors [2] = target: T1, NK3 receptors; assay: Antagonism of IP1 in HEK293 cells with stable expression of NK3; format: cell-based; conditions: agonist Senktide 3 nM, read-out: NK3R IC50 (nM) IP1

| SMILES | IC50 (NK3 receptors [1]) [nM] | IC50 (NK3 receptors [2]) [nM] |
| --- | --- | --- |
| C[C@@H]1c2nnc(-c3nc4cnc(Cl)cc4s3)n2CCN1C(=O)c1ccc(F)cc1 [Example 37, (R)-(3-(6-Chlorothiazolo[4,5-c]pyridin-2-yl)-8-methyl-5,6-dihydro-[1,2,4]triazolo[4,3-a]pyrazin-7(8H)-yl)(4-fluorophenyl)methanone] | 48.9 | 56.5 |
| [2H]c1cc(C(=O)N2CCn3c(-c4nc(Cl)ns4)nnc3[C@H]2C)ccc1F [Example 56, (R)-(3-(3-Chloro-1,2,4-thiadiazol-5-yl)-8-methyl-5,6-dihydro-[1,2,4]triazolo[4,3-a]pyrazin-7(8H)-yl)(4-fluorophenyl-3-d)methanone] | 155 | 76 |
